Target: T1, CSF-1R (Homo sapiens, UniProt P07333)
T1 construct: The His-tagged kinase domain of CSF-1R (i.e., amino acids 568-912, GeneBank ID NM_005211); His; made in house; host or cells: baculovirus infected SF+Express insect cells
T1 sequence (P07333 568-912): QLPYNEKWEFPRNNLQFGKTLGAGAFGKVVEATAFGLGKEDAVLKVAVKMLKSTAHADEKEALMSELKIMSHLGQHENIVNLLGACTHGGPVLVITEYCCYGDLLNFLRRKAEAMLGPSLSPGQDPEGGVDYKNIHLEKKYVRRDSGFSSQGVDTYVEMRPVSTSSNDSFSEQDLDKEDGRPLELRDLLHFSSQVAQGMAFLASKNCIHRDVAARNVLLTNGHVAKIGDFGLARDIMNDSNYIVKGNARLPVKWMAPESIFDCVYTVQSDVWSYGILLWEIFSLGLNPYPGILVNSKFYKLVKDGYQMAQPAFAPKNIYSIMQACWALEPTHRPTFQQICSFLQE
Assay: Assay 1: CSF-1R In Vitro AlphaScreen Assay
Type: biochemical
Conditions: purified His-tagged kinase domain of CSF-1R, 90 μM ATP
Description: The phosphorylation of the CSF-1R substrate in the presence and absence of the compound of interest was determined. […] Plates were incubated at 25° C. for 18 hours in the dark. Phosphorylated substrate was detected by an EnVision plate reader (Perkin Elmer) 680 nm excitation, 520-620 nm emission. Data was graphed and IC50s calculated using Excel Fit (Microsoft).

IC50 [nM]	SMILES
< 3	COc1cc2nnc(C(N)=O)c(Nc3cccc(Cl)c3F)c2cc1OC [Example 3, 4-[(3-Chloro-2-fluorophenyl)amino]-6,7-dimethoxycinnoline-3-carboxamide]

Target: T1, CSF-1R
Assay: Assay 2: CSF1R In-Vitro AlphaScreen Assay
Type: biochemical
Conditions: purified His-tagged kinase domain of CSF-1R, 12 mM ATP in mix
Description: Assay 2: CSF1R In-Vitro AlphaScreen Assay
Activity of purified CSF-1R was determined in-vitro using an Amplified Luminescent Proximity Homogeneous Assay (ALPHA) (Perkin Elmer, Mass.), which measures phosphorylation of CSF-1R substrate, biotinylated […] peptide (pEY-HTRF CisBio 61GT0BLD), as described below. The His-tagged kinase domain of CSF-1R (i.e., amino acids 568-912, GeneBank ID NM_005211) was purified from baculovirus infected SF+Express insect cells (1.4×10^6 cells/ml), French pressed and chromatographed through subsequent QIAgen Ni-NTA, Superflow Mono Q HR 10/10, and Superdex 200 SEC columns.
The phosphorylation of the CSF-1R substrate in the presence and absence of the compound of interest was determined. Briefly, 5 ul of Enzyme/Substrate/adenosine triphosphate (ATP) mix consisting of 0.46 nM of purified CSF-1R, 12 nM pEY substrate, and 12 mM ATP in 1.2× buffer was preincubated with 2 ul of compound for 20 minutes at 25° C. Reactions were initiated with 5 ul of Metal mix consisting of 24 mM MgCl2 in 1.2× buffer and incubated at 25° C. for 90 minutes and reactions were stopped by addition of 5 ul of Detection mix consisting of 20 mM HEPES, 102 mM ethylenediamine tetraacetic acid, 1.65 mg/ml BSA, 136 mM NaCl, 40 ug/ml Streptavidin donor beads (Perkin Elmer, Mass., Catalog #6760002), and 40 ug/ml phosphotyrosine-specific antibody coated acceptor beads (Perkin Elmer, Mass., Catalog #6760620). Plates were incubated at 25° C. for 18 hours in the dark. Phosphorylated substrate was detected by an EnVision plate reader (Perkin Elmer) 680 nm excitation, 520-620 nm emission. Data was graphed and IC50s calculated using Excel Fit (Microsoft).

SMILES	IC50 [nM]
COCCOC1CCN(c2cc3c(Nc4ccc(C)cc4F)c(C(N)=O)nnc3cc2OC)CC1 [Example 60, 4-[(2-Fluoro-4-methylphenyl)amino]-7-methoxy-6-[4-(2-methoxyethoxy)piperidin-1-yl]cinnoline-3-carboxamide]	39
COc1cc2nnc(C(N)=O)c(Nc3ccc(C)cc3F)c2cc1N1C[C@@H](C)N(CCO)[C@@H](C)C1 [Example 63, 4-[(2-Fluoro-4-methylphenyl)amino]-6-[(3R,5S)-4-(2-hydroxyethyl)-3,5-dimethylpiperazin-1-yl]-7-methoxycinnoline-3-carboxamide]	12
COc1cc2nnc(C(N)=O)c(Nc3ccc(C)cc3F)c2cc1N1CCN(CCS(C)(=O)=O)CC1 [Example 65, 4-[(2-Fluoro-4-methylphenyl)amino]-7-methoxy-6-{4-[2-(methylsulfonyl)ethyl]piperazin-1-yl}cinnoline-3-carboxamide]	6
COc1cc2nnc(C(N)=O)c(Nc3ccc(C)cc3F)c2cc1C1CCN(CC(F)F)CC1 [Example 71, 6-[1-(2,2-Difluoroethyl)piperidin-4-yl]-4-[(2-fluoro-4-methylphenyl)amino]-7-methoxycinnoline-3-carboxamide]	39
Cc1ccc(Nc2c(C(N)=O)nnc3cc(N4CCN(C)CC4)ccc23)c(F)c1 [Example 55, 4-[(2-Fluoro-4-methylphenyl)amino]-7-(4-methylpiperazin-1-yl)cinnoline-3-carboxamide]	3
Cc1ccc(Nc2c(C(N)=O)nnc3cc(N4CCN(CCO)CC4)ccc23)c(F)c1 [Example 57, 4-[(2-Fluoro-4-methylphenyl)amino]-7-[4-(2-hydroxyethyl)piperazin-1-yl]cinnoline-3-carboxamide]	8
COc1cc2nnc(C(N)=O)c(Nc3ccc(C)cc3F)c2cc1N1CCN(C[C@@H](O)CO)CC1 [Example 68, 6-{4-[(2R)-2,3-Dihydroxypropyl]piperazin-1-yl}-4-[(2-fluoro-4-methylphenyl)amino]-7-methoxycinnoline-3-carboxamide]	6

The remaining lines, values ahead:

IC50 [nM]	SMILES
5	COc1cc2nnc(C(N)=O)c(Nc3ccc(C)cc3F)c2cc1N1CCN(C[C@H](O)CO)CC1 [Example 67, 6-{4-[(25)-2,3-Dihydroxypropyl]piperazin-1-yl}-4-[(2-fluoro-4-methylphenyl)amino]-7-methoxycinnoline-3-carboxamide]
< 3	COc1cc2nnc(C(N)=O)c(Nc3ccc(C)cc3F)c2cc1N1CC[C@H](N(C)C)C1 [Example 41, 6-[(3S)-3-(Dimethylamino)pyrrolidin-1-yl]-4-[(2-fluoro-4-methylphenyl)amino]-7-methoxycinnoline-3-carboxamide]
24	COc1cc2nnc(C(N)=O)c(Nc3ccc(C)cc3F)c2cc1C1CCN(C(=O)[C@H](C)O)CC1 [Example 70, 4-[(2-Fluoro-4-methylphenyl)amino]-6-{1-[(2S)-2-hydroxypropanoyl]piperidin-4-yl}-7-methoxycinnoline-3-carboxamide]
4	COc1cc2nnc(C(N)=O)c(Nc3ccc(C)cc3F)c2cc1N1CCN(C(CO)CO)CC1 [Example 66, 4-[(2-Fluoro-4-methylphenyl)amino]-6-{4-[2-hydroxy-1-(hydroxymethyl)ethyl]piperazin-1-yl}-7-methoxycinnoline-3-carboxamide]
52	COc1cc2nnc(C(N)=O)c(Nc3ccc(C)cc3F)c2cc1N1C[C@@H](C)N(C(C)=O)[C@@H](C)C1 [Example 72, 6-[(3R,55)-4-Acetyl-3,5-dimethylpiperazin-1-yl]-4-[(2-fluoro-4-methylphenyl)amino]-7-methoxycinnoline-3-carboxamide]
52	COc1cc2nnc(C(N)=O)c(Nc3ccc(C)cc3F)c2cc1CN1CCOCC1 [Example 73, 4-[(2-Fluoro-4-methylphenyl)amino]-7-methoxy-6-(morpholin-4-ylmethyl)cinnoline-3-carboxamide]
23	COc1cc2nnc(C(N)=O)c(Nc3ccc(C)cc3F)c2cc1N1CCN(C(=O)C(C)(C)O)CC1 [Example 69, 4-[(2-Fluoro-4-methylphenyl)amino]-6-[4-(2-hydroxy-2-methylpropanoyl)piperazin-1-yl]-7-methoxycinnoline-3-carboxamide]
11	Cc1ccc(Nc2c(C(N)=O)nnc3cc(N4CCN(S(C)(=O)=O)CC4)ccc23)c(F)c1 [Example 56, 4-[(2-Fluoro-4-methylphenyl)amino]-7-[4-(methylsulfonyl)piperazin-1-yl]cinnoline-3-carboxamide]
